Experimental data as given in patent US20260297085A1, “1 H-PYRROLO[2,3-B]PYRIDIN-4-YL]-2-OXOPYRROLIDINE-3-CARBONITRILE DERIVATIVES AS TYROSINE KINASE 2 (TYK2) INHIBITORS FOR THE TREATMENT OF INFLAMMATORY DISEASES” (BIOGEN MA INC., priority 2023, published 2026).
Structures can show the parent of a compound that is named as a salt.

Assays:
[1] = biological target: T1, human JAK1 kinase domain (JH1) (Homo sapiens, UniProt P23458); experiment: JH1 biochemical assay for JAK1 (ADP-Glo kinase assay, recombinant JH1 catalytic domain, JAK3-342 peptide, 35 μM ATP)
T1 construct: recombinantly generated catalytic kinase (also known as JH1) domain of human JAK1, JAK2, JAK3 and TYK2
Method in brief: (§1)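 Compounds were titrated in 11 points of 3-fold dilution starting at 10 μM or 1 μM. Enzyme (JAK1 4 nM, JAK2 0.2 nM, JAK3 0.3 nM, TYK2 2 nM) and 50 μM peptide reacted for 100 minutes, followed by ADP-to-luminescence detection; IC50 by 4-parameter fit.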

[2] = biological target: T2, human TYK2 kinase domain (JH1) (Homo sapiens, UniProt P29597); experiment: JH1 biochemical assay for TYK2 (ADP-Glo kinase assay, recombinant JH1 catalytic domain, JAK3-974 peptide, 10 μM ATP)
T2 construct: recombinantly generated catalytic kinase (also known as JH1) domain of human JAK1, JAK2, JAK3 and TYK2
T2 sequence (P29597 897-1176 limits assumed): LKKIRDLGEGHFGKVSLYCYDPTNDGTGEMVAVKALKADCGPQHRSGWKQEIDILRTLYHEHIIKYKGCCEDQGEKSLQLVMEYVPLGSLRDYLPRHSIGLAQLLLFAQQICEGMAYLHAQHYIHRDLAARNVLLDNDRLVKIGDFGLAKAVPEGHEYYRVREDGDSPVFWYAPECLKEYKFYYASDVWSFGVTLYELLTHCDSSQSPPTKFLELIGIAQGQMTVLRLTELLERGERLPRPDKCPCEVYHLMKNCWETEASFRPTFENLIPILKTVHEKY
Method in brief: as §1

[3] = biological target: JAK1 kinase activity on STAT3 in TF1 cells (Homo sapiens, UniProt P23458); experiment: pSTAT3 cell assay (MSD; TF1 cells, 30 ng/mL IL-6 stimulation); format: cell-based; conditions: 30 ng/mL IL-6, 15 minutes
Method in brief: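 Serum-starved TF1 cells were pretreated with compound for 1 hour (10-point, four-fold dilutions from 10 μM), then stimulated with IL-6 for 15 minutes. Lysates were assayed for pSTAT3 by MSD with anti-STAT3 antibodies; IC50 came from a 4-parameter logistic fit of normalized percent activity.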

[4] = biological target: Tyk2 kinase activity on STAT4 in NK92 cells (Homo sapiens, UniProt P29597); experiment: pSTAT4 cell assay (MSD; NK92 cells, 30 ng/mL IL2 stimulation); format: cell-based; conditions: 30 ng/mL IL2, 15 minutes
Method in brief: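 Serum-starved NK92 cells, which natively express Tyk2 and STAT4, were pretreated for 1 h with a 10-point 4-fold dilution series from 10 μM. They were then stimulated with 30 ng/mL IL2 for 15 min. Phospho-STAT in lysates was quantified by MSD with anti-STAT4 antibodies, and IC50 was obtained from 4-parameter logistic fits.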

[5] = biological target: JAK2 kinase activity on STAT5 in TF1 cells (Homo sapiens, UniProt O60674); experiment: pSTAT5 cell assay (MSD; TF1 cells, 30 ng/mL IL-3 stimulation); format: cell-based; conditions: 30 ng/mL IL-3, 15 minutes
Method in brief: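 Serum-starved TF1 cells with native JAK2/STAT5 were pretreated 1 h with compound (10-point four-fold dilutions from 10 μM), then stimulated 15 min with 30 ng/mL IL-3. pSTAT5 in lysates quantified by MSD immunoassay; normalized percent activity fitted to a 4-parameter logistic curve for IC50.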

[6] = biological target: T3, human JAK2 kinase domain (JH1) (Homo sapiens, UniProt O60674); experiment: JH1 biochemical assay for JAK2 (ADP-Glo kinase assay, recombinant JH1 catalytic domain, JAK3-974 peptide, 15 μM ATP)
T3 construct: recombinantly generated catalytic kinase (also known as JH1) domain of human JAK1, JAK2, JAK3 and TYK2
Method in brief: as §1

[7] = biological target: T4, human JAK3 kinase domain (JH1) (Homo sapiens, UniProt P52333); experiment: JH1 biochemical assay for JAK3 (ADP-Glo kinase assay, recombinant JH1 catalytic domain, JAK3-974 peptide, 4 μM ATP)
T4 construct: recombinantly generated catalytic kinase (also known as JH1) domain of human JAK1, JAK2, JAK3 and TYK2
Method in brief: as §1

Sequence of JAK2 kinase activity on STAT5 in TF1 cells (O60674 whole entry): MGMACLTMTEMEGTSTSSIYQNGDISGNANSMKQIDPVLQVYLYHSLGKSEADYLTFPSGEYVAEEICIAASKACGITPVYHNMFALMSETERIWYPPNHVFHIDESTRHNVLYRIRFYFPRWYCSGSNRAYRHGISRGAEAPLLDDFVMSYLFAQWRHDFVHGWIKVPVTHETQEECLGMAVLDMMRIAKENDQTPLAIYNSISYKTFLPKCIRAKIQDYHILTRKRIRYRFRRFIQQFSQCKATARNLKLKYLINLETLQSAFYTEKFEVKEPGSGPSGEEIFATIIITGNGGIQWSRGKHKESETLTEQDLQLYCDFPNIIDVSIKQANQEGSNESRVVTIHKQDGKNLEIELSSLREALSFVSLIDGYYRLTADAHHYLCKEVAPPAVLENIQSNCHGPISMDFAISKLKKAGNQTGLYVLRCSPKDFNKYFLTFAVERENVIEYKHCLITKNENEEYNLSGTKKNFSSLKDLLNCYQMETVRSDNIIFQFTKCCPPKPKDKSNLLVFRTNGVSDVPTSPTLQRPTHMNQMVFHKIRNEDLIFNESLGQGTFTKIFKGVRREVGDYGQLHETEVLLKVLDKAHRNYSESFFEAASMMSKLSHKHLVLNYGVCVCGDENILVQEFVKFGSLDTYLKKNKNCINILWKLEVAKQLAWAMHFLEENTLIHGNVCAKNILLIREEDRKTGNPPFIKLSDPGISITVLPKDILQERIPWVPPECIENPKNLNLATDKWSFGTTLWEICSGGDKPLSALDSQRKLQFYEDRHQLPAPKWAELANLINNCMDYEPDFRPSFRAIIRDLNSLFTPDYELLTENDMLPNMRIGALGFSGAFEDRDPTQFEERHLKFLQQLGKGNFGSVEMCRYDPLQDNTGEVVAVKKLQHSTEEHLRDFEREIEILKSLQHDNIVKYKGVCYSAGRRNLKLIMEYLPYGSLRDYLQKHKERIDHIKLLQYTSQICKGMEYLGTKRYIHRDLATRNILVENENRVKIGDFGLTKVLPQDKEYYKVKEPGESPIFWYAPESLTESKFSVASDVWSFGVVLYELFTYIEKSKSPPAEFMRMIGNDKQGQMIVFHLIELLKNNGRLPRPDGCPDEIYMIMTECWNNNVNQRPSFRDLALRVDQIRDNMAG
T1 sequence (P23458 875-1153 limits assumed): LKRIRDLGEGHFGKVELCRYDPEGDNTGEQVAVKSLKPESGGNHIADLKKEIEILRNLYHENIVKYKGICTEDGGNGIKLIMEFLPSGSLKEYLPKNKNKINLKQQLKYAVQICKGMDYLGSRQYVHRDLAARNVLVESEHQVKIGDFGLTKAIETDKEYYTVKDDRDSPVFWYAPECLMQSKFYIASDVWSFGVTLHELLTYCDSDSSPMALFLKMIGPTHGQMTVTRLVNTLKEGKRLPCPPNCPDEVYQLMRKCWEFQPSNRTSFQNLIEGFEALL
T3 sequence (O60674 849-1124 limits assumed): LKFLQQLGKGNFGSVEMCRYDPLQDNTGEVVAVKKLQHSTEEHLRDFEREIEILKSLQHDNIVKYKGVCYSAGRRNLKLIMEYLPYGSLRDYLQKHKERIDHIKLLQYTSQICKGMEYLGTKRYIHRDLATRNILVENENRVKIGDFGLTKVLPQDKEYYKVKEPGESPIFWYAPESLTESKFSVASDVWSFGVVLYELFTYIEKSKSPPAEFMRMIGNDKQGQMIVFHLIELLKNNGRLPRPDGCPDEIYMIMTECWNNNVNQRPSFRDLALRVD
Sequence of JAK1 kinase activity on STAT3 in TF1 cells (P23458 whole entry): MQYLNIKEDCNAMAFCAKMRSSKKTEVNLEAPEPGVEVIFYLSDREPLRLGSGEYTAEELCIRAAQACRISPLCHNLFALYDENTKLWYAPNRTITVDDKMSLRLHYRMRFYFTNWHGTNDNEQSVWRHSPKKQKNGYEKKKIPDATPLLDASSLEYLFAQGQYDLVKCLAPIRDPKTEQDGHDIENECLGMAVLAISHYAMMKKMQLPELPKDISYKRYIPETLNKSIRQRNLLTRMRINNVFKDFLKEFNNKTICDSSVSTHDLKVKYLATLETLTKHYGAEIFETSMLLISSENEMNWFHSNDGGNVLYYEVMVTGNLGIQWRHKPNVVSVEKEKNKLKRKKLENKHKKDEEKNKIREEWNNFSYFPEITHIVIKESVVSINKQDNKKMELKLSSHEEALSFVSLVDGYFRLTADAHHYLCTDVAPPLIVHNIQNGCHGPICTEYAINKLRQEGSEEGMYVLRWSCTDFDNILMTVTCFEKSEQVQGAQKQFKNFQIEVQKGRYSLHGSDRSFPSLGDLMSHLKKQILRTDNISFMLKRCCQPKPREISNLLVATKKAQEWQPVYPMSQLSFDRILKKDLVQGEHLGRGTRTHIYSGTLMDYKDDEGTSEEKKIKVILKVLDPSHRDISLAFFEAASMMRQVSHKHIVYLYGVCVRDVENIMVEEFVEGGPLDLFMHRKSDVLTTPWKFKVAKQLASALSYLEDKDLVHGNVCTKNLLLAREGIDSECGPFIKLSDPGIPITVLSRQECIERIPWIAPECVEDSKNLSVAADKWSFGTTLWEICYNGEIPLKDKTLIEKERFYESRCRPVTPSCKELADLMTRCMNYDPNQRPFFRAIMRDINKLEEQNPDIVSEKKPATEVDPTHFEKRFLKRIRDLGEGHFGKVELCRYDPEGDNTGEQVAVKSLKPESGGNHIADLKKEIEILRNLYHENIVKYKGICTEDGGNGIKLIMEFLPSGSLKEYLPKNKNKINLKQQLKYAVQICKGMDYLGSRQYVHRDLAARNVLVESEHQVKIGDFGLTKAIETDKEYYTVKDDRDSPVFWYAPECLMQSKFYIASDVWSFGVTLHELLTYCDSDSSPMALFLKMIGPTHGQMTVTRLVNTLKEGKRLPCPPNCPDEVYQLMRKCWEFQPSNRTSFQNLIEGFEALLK
T4 sequence (P52333 822-1111 limits assumed): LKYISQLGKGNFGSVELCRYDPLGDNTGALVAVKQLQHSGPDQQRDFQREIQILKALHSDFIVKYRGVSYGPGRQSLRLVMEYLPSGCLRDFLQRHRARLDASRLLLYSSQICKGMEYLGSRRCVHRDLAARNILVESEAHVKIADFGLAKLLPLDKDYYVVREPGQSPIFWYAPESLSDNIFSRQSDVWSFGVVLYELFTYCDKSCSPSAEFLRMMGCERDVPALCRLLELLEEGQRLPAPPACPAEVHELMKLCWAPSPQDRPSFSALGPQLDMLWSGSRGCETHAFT
Sequence of Tyk2 kinase activity on STAT4 in NK92 cells (P29597 whole entry): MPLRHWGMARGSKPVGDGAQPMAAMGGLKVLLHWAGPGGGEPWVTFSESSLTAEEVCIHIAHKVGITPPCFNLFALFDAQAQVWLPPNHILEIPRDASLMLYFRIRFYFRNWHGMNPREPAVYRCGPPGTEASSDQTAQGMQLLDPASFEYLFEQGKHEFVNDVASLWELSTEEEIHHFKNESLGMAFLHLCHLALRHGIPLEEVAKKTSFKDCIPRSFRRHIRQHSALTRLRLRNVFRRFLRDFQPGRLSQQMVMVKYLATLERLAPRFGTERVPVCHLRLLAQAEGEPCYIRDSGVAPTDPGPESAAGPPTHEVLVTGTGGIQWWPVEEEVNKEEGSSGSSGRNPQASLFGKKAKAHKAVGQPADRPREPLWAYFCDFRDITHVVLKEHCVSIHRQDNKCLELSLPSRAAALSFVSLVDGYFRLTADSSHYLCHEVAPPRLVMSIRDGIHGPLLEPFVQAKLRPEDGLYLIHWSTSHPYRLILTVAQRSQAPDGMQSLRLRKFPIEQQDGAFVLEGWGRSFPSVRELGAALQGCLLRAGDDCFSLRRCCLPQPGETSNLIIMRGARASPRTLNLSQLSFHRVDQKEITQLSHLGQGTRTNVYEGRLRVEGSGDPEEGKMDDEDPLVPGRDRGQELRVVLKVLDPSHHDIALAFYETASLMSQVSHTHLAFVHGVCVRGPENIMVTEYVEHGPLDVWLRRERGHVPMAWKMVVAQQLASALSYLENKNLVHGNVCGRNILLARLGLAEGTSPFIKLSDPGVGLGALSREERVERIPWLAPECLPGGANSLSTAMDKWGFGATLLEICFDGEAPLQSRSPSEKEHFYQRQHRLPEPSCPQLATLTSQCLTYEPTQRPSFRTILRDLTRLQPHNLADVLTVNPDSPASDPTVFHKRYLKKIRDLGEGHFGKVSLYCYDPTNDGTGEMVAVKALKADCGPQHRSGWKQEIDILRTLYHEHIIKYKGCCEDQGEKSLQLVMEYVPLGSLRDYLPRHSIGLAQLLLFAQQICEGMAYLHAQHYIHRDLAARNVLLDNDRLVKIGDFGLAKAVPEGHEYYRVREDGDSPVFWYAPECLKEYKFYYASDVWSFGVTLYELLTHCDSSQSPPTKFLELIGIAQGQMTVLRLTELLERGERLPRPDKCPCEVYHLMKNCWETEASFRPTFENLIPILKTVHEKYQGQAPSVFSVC

Structure (SMILES) | IC50 ([1]; JH1 kinase domain, ADP-Glo) [nM] | IC50 ([2]; JH1 kinase domain, ADP-Glo) [nM] | IC50 [3] [nM] | IC50 [4] [nM] | IC50 [5] [nM] | IC50 ([6]; JH1 kinase domain, ADP-Glo) [nM] | IC50 ([7]; JH1 kinase domain, ADP-Glo) [nM] | IC50 ([1]; JAK1 JH1, ADP-Glo) [nM] | IC50 ([2]; TYK2 JH1, ADP-Glo) [nM] | IC50 ([6]; JAK2 JH1, ADP-Glo) [nM] | IC50 ([7]; JAK3 JH1, ADP-Glo) [nM]
C[C@@H]1CN(c2ccnn3cc(-c4cccc(C(F)F)n4)cc23)C(=O)[C@]1(C#N)C1CC1 [Example 135, (3R,4S)-3-cyclopropyl-1-(6-(6-(difluoromethyl)pyridin-2-yl)pyrrolo[1,2-b]pyridazin-4-yl)-4-methyl-2-oxopyrrolidine-3-carbonitrile trifluoroacetate] | 100 to 1000 | 5 to 20 | 1000 to 5000 | > 100 | > 10000 | 100 to 1000 | 100 to 1000 |  |  |  | 
C[C@@H]1CN(c2ccnn3cc(-c4cnn(-c5cccnc5)c4)cc23)C(=O)[C@]1(C#N)C1CC1 [Example 159, (3R,4S)-3-cyclopropyl-4-methyl-2-oxo-1-(6-(1-(pyridin-3-yl)-1H-pyrazol-4-yl)pyrrolo[1,2-b]pyridazin-4-yl)pyrrolidine-3-carbonitrile] | 100 to 1000 | < 5 | 1000 to 5000 | 50 to 100 | 5000 to 10000 | 100 to 1000 | 100 to 1000 |  |  |  | 
C[C@@H]1CN(c2nc(-c3cnc4c(c3)CC(=O)N4)cn3nccc23)C(=O)[C@]1(C#N)C1CC1 [Example 205, (3R,4S)-3-cyclopropyl-4-methyl-2-oxo-1-(6-(2-oxo-2,3-dihydro-1H-pyrrolo[2,3-b]pyridin-5-yl)pyrazolo[1,5-a]pyrazin-4-yl)pyrrolidine-3-carbonitrile] | < 100 | < 5 | 1000 to 5000 | > 100 | 5000 to 10000 | < 100 | < 100 |  |  |  | 
C[C@@H]1CN(c2ccnn3cc(-c4ccc5nccn5c4)cc23)C(=O)[C@]1(C#N)C1CC1 [Example 88, (3R,4S)-3-cyclopropyl-1-(6-(imidazo[1,2-a]pyridin-6-yl)pyrrolo[1,2-b]pyridazin-4-yl)-4-methyl-2-oxopyrrolidine-3-carbonitrile] | < 100 | < 5 | 100 to 1000 | 20 to 50 | 1000 to 5000 | 100 to 1000 | 100 to 1000 |  |  |  | 
C[C@@H]1CN(c2ccnn3cc(-c4cnc5[nH]ccc5c4)cc23)C(=O)[C@]1(C#N)C1CC1 [Example 64, (3R,4S)-1-(6-(1H-pyrrolo[2,3-b]pyridin-5-yl)pyrrolo[1,2-b]pyridazin-4-yl)-3-cyclopropyl-4-methyl-2-oxopyrrolidine-3-carbonitrile] | 100 to 1000 | 5 to 20 | 1000 to 5000 | 50 to 100 | 5000 to 10000 | 100 to 1000 | 100 to 1000 |  |  |  | 
C[C@@H]1CN(c2nn(-c3cnn(C(F)F)c3)c3cnccc23)C(=O)[C@]1(C#N)C1CC1 [Example 276, (3R,4S)-3-cyclopropyl-1-(1-(1-(difluoromethyl)-1H-pyrazol-4-yl)-1H-pyrazolo[3,4-c]pyridin-3-yl)-4-methyl-2-oxopyrrolidine-3-carbonitrile] |  |  | 5000 to 10000 | > 100 | > 10000 |  |  | 100 to 1000 | 5 to 20 | 1000 to 5000 | 100 to 1000
C[C@@H]1CN(c2ccnn3cc(-c4ccn(C)c(=O)c4)cc23)C(=O)[C@]1(C#N)C1CC1 [Example 79, (3R,4S)-3-cyclopropyl-4-methyl-1-(6-(1-methyl-2-oxo-1,2-dihydropyridin-4-yl)pyrrolo[1,2-b]pyridazin-4-yl)-2-oxopyrrolidine-3-carbonitrile] | 100 to 1000 | 5 to 20 | > 10000 | > 100 | > 10000 | 100 to 1000 | 100 to 1000 |  |  |  | 
Cc1cc(-c2cc3c(N4CC[C@@](C#N)(C5CC5)C4=O)ccnn3c2)on1 [Example 11, (S)-3-cyclopropyl-1-(6-(3-methylisoxazol-5-yl)pyrrolo[1,2-b]pyridazin-4-yl)-2-oxopyrrolidine-3-carbonitrile] | 1000 to 5000 | 20 to 50 | > 10000 | > 100 | > 10000 | 1000 to 5000 | 100 to 1000 |  |  |  | 
